# Measured values taken from article PMC9586926, “An efflux-susceptible antibiotic-adjuvant with systemic efficacy against mouse infections” (Scientific Reports, 2022).
# Where a SMILES comes first, the peptide text is derived from it. [ ]: non-standard residue; d: D form. The star is where a group is joined. 12Ado = NCCCCCCCCCCCC(=O)O; Decanoyl = CCCCCCCCCC(=O)*; Dab = NCC[C@H](N)C(=O)O
# What was measured:
# E. coli 25922 [1] = type: cell-based, Escherichia coli
# Method: MIC was determined according to the broth microdilution method: antimicrobials were subjected to serial twofold dilutions in LB medium, and incubated with 5 × 10^5 CFU/ml of bacteria (final volume of 200 µl) for 18–24 h at 37 °C. Then, O.D.620 nm was measured (BioTek Instruments Synergy HT; Winooski, VT, USA), and the MIC was defined as the lowest antimicrobial concentration for which no increase in O.D.620 nm was evident, compared to the untreated control.
# Lipopeptides and antibiotics combinations were assessed using a modified version of the checkerboard titration method: Antibiotics MIC was determined in LB medium containing sub-inhibitory lipopeptide concentrations. The sensitization factor (SF)[46] was then calculated by SF = MICA/MICC, where “MICA” is the antibiotic MIC in absence of an adjuvant and “MICC “ is the antibiotic MIC in presence of an adjuvant, for a specified adjuvant concentration. Combinations were classified as synergistic when antibiotics MIC were decreased by > 4 folds. Alternatively, the fractional inhibitory concentration index (FICI) was calculated by FICI = MICC1/MICA1 + MICC2/MICA2, where “MICC1” and “MICC2” respectively specify the antibiotic and the adjuvant MIC values upon their combination, whereas “MICA1” and “MICA2” respectively specify the antibiotic and the adjuvant MIC values when tested individually. Combinations were classified as synergistic for FICI < 0.5.
# E. coli 25922 [2] = test: Peritonitis-sepsis infection model in neutropenic mice; type: in vivo; details: n = 10
# Method: The study is reported in accordance with ARRIVE guidelines.
# Lipopeptides potential application in monotherapy and/or combination-therapies was explored with two infection models. In the peritonitis-sepsis model, mice (n = 10 per group) were first rendered neutropenic by two intraperitoneal (I.P.) injections of 0.3 ml containing 150 mg/kg and 100 mg/kg cyclophosphamide, administered 4 days and 1 day before the experiment, respectively. […] Mice survival was recorded for up to 7 days. In a variant assay, bacteria in PBS (1.4 × 10^6) were pre-treated with 10 µM lipopeptides for 15 min, similarly administered, and mice survival was recorded for up to 3 days. In the urinary-tract infection (UTI) model, mice (N = 5 mice per group) were anesthetized by a single I.P. injection (0.2 ml) containing a mixture of ketamine (100 mg/kg) and xylazine (5 mg/kg). Following application of an analgesic 2% lidocaine gel on their penises, mice were infected intra-urethraly using a 24-gauge catheter with 1.2 × 10^8 CFU/mouse (0.05 ml) and treated with the vehicle control (S.C., 1 h post-infection), 2 mg/kg rifampin (oral gavage, immediately before anesthesia), 7.5 mg/kg q.i.d. lipopeptides (S.C., starting 1 h post-infection), or both. Mice were sacrificed 24 h post-infection, their bladder and kidneys aseptically excised, suspended in 5 ml of sterile PBS, homogenized for 3 min using a bench-top homogenizer, serially tenfold diluted in saline, plated on LB agar, and incubated over-night at 37 °C for enumeration.
# [3] = […] S.C., mice plasma, UPLC-MS
# Method: Animal procedures were reviewed and approved by the Institutional Animal Care and Use Committee (ethics no. IL-0800519, IL-0760711, IL-0550618, IL-0320320, IL-1270821) and performed in accordance with the “Guide for the Care and Use of Laboratory Animals”, published by the US National Research Council[70]. The study is reported in accordance with ARRIVE guidelines. All protocols employed 4–5-week-old male ICR mice, weighing 20–25 g (Envigo; Jerusalem, Israel). Mice were kept on a 12 h light/dark cycle and provided with food and water ad-libitum. At the designated experimental end-points mice were euthanized by means of CO2 asphyxiation. […]
# To assess lipopeptides circulating concentrations, mice (N = 3 per group) were S.C. administered with lipopeptides solutions (0.2 ml), sacrificed at specified times afterwards and their blood was aseptically collected. […] 0.5 ml of the supernatant were diluted 2-folds with Milli-Q water and analyzed by UPLC-MS using a C18 column. Quantification was performed using a calibration-curve generated with similarly processed blood samples, initially spiked with known lipopeptide concentrations. […] Quantification was performed using a calibration-curve generated with fresh lipopeptide solutions of known concentrations prepared in Milli-Q water.
# E. coli 25922 [4] = test: Cytoplasmic membrane depolarization, DiSC3(5) fluorescence; type: cell-based, Escherichia coli; details: C10BBc12B up to 10 µM; PMB 2.5 µM
# Method: Lipopeptides aptitude to depolarize the CM was evaluated using fluorescent measurements of the transmembrane potential sensitive dye 3,3′-Dipropylthiadicarbocyanine iodide (DiSC3(5))[69]. Bacteria (O.D.600 nm = 0.1) were washed by centrifugation at 10,000 RCF for 5 min, supernatant aspiration, and pellet resuspension in 5 mM HEPES containing 20 mM glucose, 50 mM KCl and 0.2 mM EDTA (pH = 7.2). This suspension was mixed with DiSC3(5) (400 µM in DMSO) to reach a final DiSC3(5) concentration of 4 µM and was incubated in the dark for 1 h at 37 °C with shaking. Then, 180 µl of this mixture were dispensed into black microtiter plates and fluorescence was recorded (excitation: 622 nm; emission: 670 nm) at 37 °C with shaking until baseline stabilization (BioTek Instruments Synergy HT; Winooski, VT, USA). Finally, 20 µl of HEPES containing serial twofold dilutions of lipopeptides were added and fluorescence was recorded for up to 30 min at the same conditions.
smiles,measurement,setting,value
"CCCCCCCCCC(=O)N[C@@H](CCN)C(=O)N[C@@H](CCN)C(=O)NCCCCCCCCCCCC(=O)N[C@@H](CCN)C(N)=O [C10BBc12B, decanoyl-bis.diaminobutyrate-aminododecanoyl-diaminobutyrate-amide] (Decanoyl-[Dab][Dab][12Ado][Dab]-NH2)",relationship with EPI PAβN in rifampin potentiation,"E. coli 25922 [1]; 10 µM C10BBc12B ± 5 µg/ml PAβN, SF for rifampin",antagonistic relationship
same,sensitization efficiency to rifampin,"E. coli 25922 [1]; E. coli, from isobologram data","65,000 folds"
same,"survival rate, monotherapy","E. coli 25922 [2]; 1.7 × 10^6 CFU/mouse, […] C10BBc12B S.C. 1 h post-infection or 20 mg/kg rifampin oral gavage",40%
same,"efficacy, monotherapy, higher inoculum","E. coli 25922 [2]; 1.9 × 10^6 CFU/mouse, […] C10BBc12B S.C. or 20 mg/kg rifampin oral",virtually no efficacy
same,mice mortality after infection with bacteria pre-treated with lipopeptide,"E. coli 25922 [2]; modified model, 1.4 × 10^6 CFU/mouse pre-treated 15 min with 10 µM in PBS, I.P., three days",delayed the onset of mice mortality and reduced the overall lethality rate
same,time with antibiotics potentiating concentrations (≥ 2.5 µg/ml) maintained,[3],> 2 h
same,time after which most lipopeptide cleared from the bloodstream,[3]; n = 3 per time point,~ 180 min
same,CM depolarization (trans-membrane potential),E. coli 25922 [4],unable to affect the trans-membrane potential
